In publication PMC4267622, “Pin1-mediated Sp1 phosphorylation by CDK1 increases Sp1 stability and decreases its DNA-binding activity during mitosis” (Nucleic Acids Research, 2014):

Tests used:
Pin1 R14A mutant = experiment: X-ray crystallography of Sp1 peptide with Pin1 R14A; format: binding; conditions: co-crystallization, Pin1 pre-mixed with 10-fold peptide, 4°C for 4 h
Protocol: (§1) Additionally, two other point mutants of Pin1, K63A and C113A, which are PPIase-activity-deficient, were generated and used in the crystallographic experiments ([42]). For the crystallization and the thermodynamic parameters of Pin1 and Sp1 peptide binding analysis, protein expression and crystallization of Pin1 was performed in slightly modified as described previously ([41]). In brief, the gene for Pin1 was cloned into pET28a with an N-terminal His12-tag and a thrombin cleavage site. R14A, R14A/K63A and R14A/C113A mutants of Pin1 were generated using the PCR-based QuikChange site-directed mutagenesis kit (Agilent). The correct construct was transformed into E. coli BL-21 (DE3) competent cells for protein expression. Transformed BL21 (DE3) bacteria were grown in Luria Bertani (LB) medium containing […] kanamycin at 30°C. Bacteria were induced with 1 mM isopropyl β-D-thiogalactoside (IPTG) overnight at 20°C. Pin1 proteins were purified by Ni^2+-nitrilotriacetic acid affinity chromatography, digested with thrombin and further purified by second run of Ni^2+-nitrilotriacetic acid affinity chromatography. The protein was prepared at 10–20 mg/ml in 10mM HEPES pH 7.5 containing 100 mM NaCl and 1 mM DTT for crystallization. […]
(§2) All crystals were flash-cooled to 100 K in a stream of cold nitrogen prior to data collection. […] The electron density was calculated by Refmac5 ([43]). […]

Pin1 R14A/C113A mutant = experiment: X-ray crystallography of Sp1 peptide with Pin1 R14A/C113A; format: binding; conditions: ablated isomerase activity; co-crystallization, 10-fold peptide, 4°C for 4 h
Protocol: as §1, §2

Pin1 = experiment: Isothermal titration calorimetry binding of Sp1 peptides to Pin1; conditions: 25°C
Protocol: Additionally, two other point mutants of Pin1, K63A and C113A, which are PPIase-activity-deficient, were generated and used in the crystallographic experiments ([42]). For the crystallization and the thermodynamic parameters of Pin1 and Sp1 peptide binding analysis, protein expression and crystallization of Pin1 was performed in slightly modified as described previously ([41]). In brief, the gene for Pin1 was cloned into pET28a with an N-terminal His12-tag and a thrombin cleavage site. R14A, R14A/K63A and R14A/C113A mutants of Pin1 were generated using the PCR-based QuikChange site-directed mutagenesis kit (Agilent). The correct construct was transformed into E. coli BL-21 (DE3) competent cells for protein expression. Transformed BL21 (DE3) bacteria were grown in Luria Bertani (LB) medium containing […] kanamycin at 30°C. Bacteria were induced with 1 mM isopropyl β-D-thiogalactoside (IPTG) overnight at 20°C. Pin1 proteins were purified by Ni^2+-nitrilotriacetic acid affinity chromatography, digested with thrombin and further purified by second run of Ni^2+-nitrilotriacetic acid affinity chromatography. The protein was prepared at 10–20 mg/ml in 10mM HEPES pH 7.5 containing 100 mM NaCl and 1 mM DTT for crystallization. Crystals were grown from a drop composed of […] of protein solution and […] of reservoir solution consisting of 2.0–2.5 M (NH4)2SO4, 1–2% (w/v) PEG 400 and 1–2 mM DTT in 0.1M HEPES buffer pH 7.5 equilibrated at 4°C against 0.5 ml of reservoir solution using the hanging-drop vapor-diffusion method. Crystals of Pin1 in complex with Sp1 peptides were obtained in co-crystallization experiments with the Pin1 protein pre-mixed with 10-fold Sp1 peptide and incubated at 4°C for 4 h before crystallization.
Thermodynamic parameters of Pin1 and Sp1 peptide binding were determined using a Micro-Cal iTC200 (GE Healthcare Life Sciences). All samples were filtered with […] cutoff filters (Millipore). The buffer for Pin1 and Sp1 peptide solutions consisted of 10 mM HEPES pH 7.5, 100 mM NaCl and 1 mM DTT. A […] solution of Sp1 peptide was directly titrated into a solution of […] Pin1 in […] aliquots. The experiments were performed at 25°C. Data were then analysed using the software origin.
To confirm that Pin1 indeed affects the C-terminal conformation of Sp1, Pin1 was purified and oligopeptides of the region 735–745 of Sp1, with or without phosphate at Thr739, were synthesized for ITC and X-ray crystallography experiments (Figure 3). […] Furthermore, two other point mutants of Pin1, K63A and C113A, which are PPIase-activity-deficient, were generated and used in the crystallographic experiments ([42]).
Figure 3. Pin1 recruitment alters the conformation of C-terminal Sp1. (A) The binding analyses of Thr739-Sp1 (left panel) and Thr739(p)-Sp1 (right panel) peptides to Pin1 were determined by ITC. Representative plots from an ITC experiment are shown with raw data in the upper panel and curve fit in the lower panel. The Thr739-Sp1 or Thr739(p)-Sp1 peptides were titrated into the reaction cell containing Pin1 protein. […] The 2Fo–Fc electron density is shown in blue color, contoured at 1σ. […] Overall structure (i) and a close-up view of the active-site pocket of Pin1 (ii). […] Positive charges on the electrostatic surfaces are drawn in blue and negative charges in red.

p21^CIP/WAP = p21^CIP/WAP luciferase activity assay; format: cell-based; conditions: HeLa, vs GFP-Sp1 (1–785)
Protocol: (§3) HeLa cells and mouse embryonic fibroblasts (MEFs) were cultured in DMEM containing 10% of FBS, 100μg/ml streptomycin sulfate and 100 units/ml penicillin G sodium at 37°C, 5% CO2. For transfection of GFP-Sp1, GFP-Sp1-T739A, GFP-Sp1-T739D, GFP-Sp1 (1-740), GFP-Sp1-4A, GFP-Sp1-4D, HA-Sp1, HA-Sp1-4A (S720A, T723A, T737A and T739A), HA-Sp1-4D (S720D, T723D, T737D and T739D), pGL2, pGL2-p21, Sp1 shRNA, or Pin1 shRNA, 2 μg of plasmids was incubated with 2 μl of Lipofectamine in 200 μl of OPTI-MEM for 30 min in room temperature. After incubation, the mixture of plasmids and Lipofectamine in OPTI-MEM was added into 2 ml of OPTI-MEM. The cells were incubated with the mixture of plasmids and Lipofectamine for 6 h. The cells were then incubated in fresh Dulbecco's modified Eagle's medium (DMEM) for 18 or 36 h. The cells were collected for immunoprecipitation or immunoblotting.

[1] = system: Sp1-binding probe of p21^WAF1/CIP1 promoter; experiment: DNA affinity precipitation assay (DAPA); conditions: mitotic extract of HeLa cells, 4°C, 1 h, three independent experiments
Protocol: Cell lysate incubated with 1 μg of binding probes in 500 μl binding of buffer (2 mM MgCl2, 60 mM KCl, 20 mM Tris-HCl pH 7.8, 5% glycerol, 0.5 mM EDTA and 0.02% NP-40). After incubation for 1 h at 4°C, the mixture was incubated with 30 μl of streptavidin-agarose beads (GE Healthcare Life Sciences) for 1 h at 4°C. The mixture was washed three times by binding buffer. The proteins in the beads were eluted by 2X sample buffer and analysed by SDS-PAGE and immunoblotting. The Sp1-binding probe 5′-[…]-3′, localized from −82 to −50 bp within the promoter of p21^WAF1/CIP1, was biotinylated at 5′ termini and then annealed with complementary strands.

RNF4 = RNF4 co-immunoprecipitation with GFP-Sp1 constructs; format: binding; conditions: HeLa, anti-GFP immunoprecipitation, vs full-length Sp1 (1–785)
Protocol: Cell lysates were prepared by using mRIPA buffer (50 mM Tris-HCl, pH 7.8, 150 mM NaCl, 5 mM ethylenediaminetetraacetic acid (EDTA), 0.1% Triton-X100, 0.05% NP-40). The lysates were incubated with anti-Sp1 (1:500), anti-CDK1 (1:200), anti-Pin1 (1:250), anti-HA tag (1:250), or anti-GFP tag (1:200) antibodies at 4°C for 1 h. After 1 h incubation, the mixture was incubated with Protein A or G Sepharose agarose beads at 4°C for 1 h. The beads were collected and washed three times by mRIPA buffer. The beads were added 2X electrophoresis sample buffer and analysed by immunoblotting.

HeLa cells [2] = experiment: Protein level of GFP-Sp1 constructs in HeLa cells (western blot); format: cell-based; conditions: equal amount of plasmids
Protocol: as §3
Cell lysates or immunoprecipitation samples were fractionated by sodium dodecyl sulfate-polyacrylamide gel electrophoresis (SDS-PAGE) and transferred to polyvinylidene fluoride (PVDF) membrane using a transfer apparatus according to the manufacturer's protocols (Bio-Rad). After incubation with 3% non-fat milk or 2% bovine serum albumin in Tris-buffered Saline with Tween 20 buffer (TBST buffer, 10 mM Tris-HCl pH 8.0, 150 mM NaCl and 0.5% Tween 20) for 1 h, membranes were incubated with antibodies at 4°C overnight. […]

HeLa cells [3] = experiment: Sp1 localisation on chromosomes during mitosis; format: cell-based; conditions: nocodazole 16 h
Protocol: The cells were fixed with 4% paraformaldehyde (Sigma-Aldrich) in PBS according to a method described previously ([3]). Immunostaining was conducted with primary antibodies such as anti-Sp1, anti-GFP tag (Santa Cruz Biotechnology, Santa Cruz, CA), or anti-Pin1 (Calbiochem, San Diego, CA) antibodies. The cells were then treated with Alexa Fluor 488-conjugated goat anti-mouse or rabbit immunoglobulin G (IgG) and Alexa Fluor 568-conjugated goat anti-mouse or rabbit IgG polyclonal antibodies (Jackson ImmunoResearch Laboratories Inc., West Grove, PA). Finally, the cells were mounted in 90% glycerol containing 4'-6-diamidino-2-phenylindole (DAPI) (Invitrogen), and examined using a confocal laser-scanning microscope (FluoView^TM FV 1000; Olympus, Melville, NY) or immunofluorescence microscope (Personal DV Applied Precision, Issaquah, WA). The images were analysed with softWoRx software (Applied Precision Inc.).

HeLa cells [4] = experiment: Flow cytometry with PI staining (cell cycle); format: cell-based; conditions: nocodazole 16 h
Protocol: The cells washed by cold PBS and then fixed in 70% alcohol or 4% paraformaldehyde at 4°C for 2 h. After fixation, the cells washed by cold PBS and treated with 0.1% TritonX-100, 10μg/ml RNase and 50 μg/ml propidium iodide for 1 h. The cells were analysed by flow cytometer (Cell Lab Quanta™ SC; Beckman Coulter or FACSCalibur; BD Biosciences).

Substance	configurations of electron density map of bound peptide (Pin1 R14A mutant)	configurations of electron density map of bound peptide (Pin1 R14A/C113A mutant)	Ka (Pin1; ITC curve fit, 10 mM HEPES pH 7.5, 100 mM NaCl, 1 mM DTT)	N (stoichiometry of bound Thr739(p)-Sp1 peptide per Pin1 protein) (Pin1; ITC curve fit, pH 7.5)	ΔH (Pin1; ITC curve fit, pH 7.5)	ΔS (Pin1; ITC curve fit, pH 7.5)	interaction with Pin1 (Pin1; ITC, 10 mM HEPES pH 7.5, 100 mM NaCl, 1 mM DTT)	transcriptional activity of p21^CIP/WAP (p21^CIP/WAP)	DNA-binding activity to the p21^CIP/WAP promoter [1]	interaction with RNF4 (RNF4)	protein level (HeLa cells [2])	removal from chromosomes during mitosis (HeLa cells [3])	cells entered mitosis (HeLa cells [4])
Thr739(p)-Sp1 peptide: oligopeptide of the region 735–745 of Sp1, with phosphate at Thr739	one configuration	two configurations	7.4 ± 1.4 × 10^3 M^−1	0.93 ± 0.25	-6.8 ± 2.2 kcal/mol	-5.0 cal/mol/K	Pin1 could interact with the Thr739(p)-Sp1 peptide						
GFP-Sp1 (1–740): GFP-Sp1 lacking the C-terminal end (741–785)								increased the transcriptional activity of p21^CIP/WAP	increased the DNA-binding activity of Sp1 during mitosis	decreased interaction between RNF4 and GFP-Sp1 (1–740)	higher than that of GFP-Sp1 (1–785)		
Sp1-4D: Sp1 mutant S720D, T723D, T737D and T739D									decreased the DNA-binding activity of Sp1 to the p21^CIP/WAP promoter			completely removed from the chromosomes	75%
